Experimental data from patent US11884647B2, “Compounds and methods for targeting pathogenic blood vessels” (THE REGENTS OF THE UNIVERSITY OF CALIFORNIA, priority 2019, dated 2024).

Tested on: tumor endothelial cells (LL/2 lung cancer tumor)
Assay: Lung LL2 ex vivo model of tumor angiogenesis
Format: cell-based, mouse
Details: for Cell death (24 hrs) / Morphology observations (24 hrs): Conc. 20 μm
Procedure, shortened: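 Read-out is live/dead fluorescence imaging (fluorescein diacetate green, propidium iodide red, 10 min at 37° C) at 2×, taken e.g. 48 h after drug addition. Fragments of mouse LL2 tumor are cultured in Matrigel with endothelial growth medium, usually 4 days, until new endothelial cells grow out, then treated.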

[1] = Mus musculus, Endothelial cell, 48 h, read-out: Cell death

CCCCCCCCCCOc1ccc(S(=O)(=O)c2cnc3ccc([S+](C)[O-])cc3c2N2CCC(N3CCC(N4CCCC(O)C4)CC3)CC2)cc1 (stereo not drawn) [compound 288, 1″-(3-((4-(decyloxy)phenyl)sulfonyl)-6-(methylsulfinyl)quinolin-4-yl)-[1,4′:1′,4″- terpiperidin]-3-ol]
cytotoxicity at 10 µM [1]: 50%

CC(C)CCCC(C)CCOc1ccc(S(=O)(=O)c2cnc3ccc([S+](C)[O-])cc3c2N2CCC(N3CCC(N4CCCCC4)CC3)CC2)cc1 (stereo not drawn) [compound 289, 4-([1,4′:1′,4″-terpiperidin]-1″-yl)-3-((4-((3,7-dimethyloctyl)oxy)phenyl)sulfonyl)-6-(methylsulfinyl)quinoline]
cytotoxicity at 20 µM [1]: 20%

CCCCCCCCCCOc1ccc(S(=O)(=O)c2cnc3ccc([S+](C)[O-])cc3c2N2CCC(N3CCC(N4CCCCC4)CC3)CC2)cc1F (stereo not drawn) [compound 290, ([1,4′:1′,4″-terpiperidin]-1″-yl)-3-((4-(decyloxy)-3-fluorophenyl)sulfonyl)-6-(methylsulfinyl)quinoline]
48 hrs (morphology observations after 48 hours) (Lung LL2 ex vivo, Conc. 10 μm, 48 hrs): *** (100% of endothelial cells vesicularize in cell shape) | Cell death (Lung LL2 ex vivo, Conc. 10 μm, drug treatment two days): 50%

CCCCCCCCCCOc1ccc(S(=O)(=O)c2cnc3ccc([S+](C)[O-])cc3c2N2CCC(N3CCN(CCO)CC3)CC2)cc1F (stereo not drawn) [compound 291, 2-(4-(1-(3-((4-(decyloxy)-3-fluorophenyl)sulfonyl)-6-(methylsulfinyl)quinolin-4-yl)piperidin-4-yl)piperazin-1-yl)ethan-1-ol]
Cell death (24 hrs) (Lung LL2 ex vivo): 10% | Morphology observations (24 hrs) (Lung LL2 ex vivo): * (50% or less of cells vesicularize in cell shape)

CCCCCCCCCCOc1ccc(S(=O)(=O)c2cnc3ccc([S+](C)[O-])cc3c2N2CCC(N3CCC(N4CCN(CCO)CC4)CC3)CC2)cc1 (stereo not drawn) [compound 292, 2-(4-(1′-(3-((4-(decyloxy)phenyl)sulfonyl)-6-(methylsulfinyl)quinolin-4-yl)-[1,4′-bipiperidin]-4-yl)piperazin-1-yl)ethan-1-ol]
Cell death (24 hrs) (Lung LL2 ex vivo): 10% | Morphology observations (24 hrs) (Lung LL2 ex vivo): * (50% or less of cells vesicularize in cell shape)

CCN(c1c(S(=O)(=O)c2ccc(OC)cc2)cnc2cc(OC)c(OC)cc12)C(C)C [compound 294, N-ethyl-N-isopropyl-6,7-dimethoxy-3-((4-methoxyphenyl)sulfonyl)quinolin-4-amine]
cytotoxicity at 40 µM [1]: 50%

CCN(CC)CCN(CC)c1c(S(=O)(=O)c2ccc(OC)cc2)cnc2cc(OC)c(OC)cc12 [compound 296, N1-(6,7-dimethoxy-3-((4-methoxyphenyl)sulfonyl)quinolin-4-yl)-N1,N2,N2-triethylethane-1,2-diamine]
cytotoxicity at 40 µM [1]: 20%

CCN(CC)CCC(C)Nc1c(S(=O)(=O)c2ccc(OC)cc2)cnc2cc(OC)c(OC)cc12 (stereo not drawn) [compound 300, N3-(6,7-dimethoxy-3-((4-methoxyphenyl)sulfonyl)quinolin-4-yl)-N1,N1-diethylbutane-1,3-diamine]
cytotoxicity at 40 µM [1]: 20%

CCN(CC)CCCN1CCN(c2c(S(=O)(=O)c3ccc(OC)cc3)cnc3cc(OC)c(OC)cc23)CC1 [compound 302, 3-(4-(6,7-dimethoxy-3-((4-methoxyphenyl)sulfonyl)quinolin-4-yl)piperazin-1-yl)-N,N-diethylpropan-1-amine]
cytotoxicity at 40 µM [1]: 70%

COc1ccc(S(=O)(=O)c2cnc3cc(OC)c(OC)cc3c2N2C[C@@H]3C[C@H]2CN3C)cc1 [compound 306, 6,7-dimethoxy-3-((4-methoxyphenyl)sulfonyl)-4-((1S,4S)-5-methyl-2,5-diazabicyclo[2.2.1]heptan-2-yl)quinoline]
cytotoxicity at 40 µM [1]: 40%

COc1ccc(S(=O)(=O)c2cnc3cc(OC)c(OC)cc3c2N2CCC(O)(c3ccccc3)CC2)cc1 [compound 308, 1-(6,7-dimethoxy-3-((4-methoxyphenyl)sulfonyl)quinolin-4-yl)-4-phenylpiperidin-4-ol]
cytotoxicity at 40 µM [1]: 20%

CNC(=O)c1ccc(C2CCN(c3c(S(=O)(=O)c4ccc(OC)cc4)cnc4cc(OC)c(OC)cc34)CC2)cc1 [compound 310, 4-(1-(6,7-dimethoxy-3-((4-methoxyphenyl)sulfonyl)quinolin-4-yl)piperidin-4-yl)-N-methylbenzamide]
cytotoxicity at 40 µM [1]: 10%
